What is called IC50 is the concentration needed to halve the response being measured.

The nature of assay [1]: Inhibition of hyaluronic acid deposition in human LX2 cells. It counts as functional, cell-based. The conditions noted are these: lx-2.
Assay [2] in a line: Cytotoxicity against human LX2 cells assessed as reduction in cell viability by MTT assay. It counts as functional, cell-based. As to conditions: LX-2. For orientation: Formazan colour is commonly taken as a measure of viable cells.
The nature of assay [3]: Potency index, ratio of STM IC50 to test compound IC50 for inhibition of hyaluronic acid deposition in human LX2 cells. It counts as functional, LX-2.
A short description of assay [4]: Inhibition of laminin deposition in human LX2 cells. It counts as functional, cell-based. As to conditions: lx-2.
Assay [5] can be described thus: Potency index, ratio of STM IC50 to test compound IC50 for inhibition of laminin deposition in human LX2 cells. It counts as functional, LX-2.
Assay [6] is described as follows: Potency index, ratio of STM IC50 to test compound IC50 for cytotoxicity against human LX2 cells. It counts as functional, LX-2.
The nature of assay [7]: Inhibition of collagen type 1 deposition in human LX2 cells. The conditions noted are these: lx-2. It counts as functional, cell-based.
The next assay has as its system LS174T. Kind of assay: Growth inhibition of human LS174T cells incubated for 72 hrs by methylene blue staining based assay. It counts as functional, cell-based.
In the next assay the test system is CCRF-CEM. In words: Growth inhibition of human CCRF-CEM cells incubated for 24 to 48 hrs by trypan blue exclusion assay. It counts as functional, cell-based.
Another assay has as its system MCF7. In words: Growth inhibition of human MCF7 cells incubated for 72 hrs by methylene blue staining based assay. It counts as functional, cell-based. As to conditions: MCF7, 72 h.
Assay [8] can be described thus: Inhibition of collagen type 1 deposition in human LX2 cells incubated for 72 hrs by ELISA. It counts as functional, cell-based. As to conditions: lx-2. (ELISA stands for enzyme-linked immunosorbent assay.)
Assay [9] in a line: Cytotoxicity against human LX2 cells assessed as reduction in cell viability incubated for 48 hrs by MTT assay. It counts as functional, cell-based. The conditions noted are these: LX-2, 48 h.
The subject of another assay is KB. In words: Growth inhibition of human KB cells incubated for 72 hrs by methylene blue staining based assay. It counts as functional, cell-based.
A further assay deals with L1210. In words: Growth inhibition of mouse L1210 cells incubated for 24 to 48 hrs by trypan blue exclusion assay. It counts as functional, cell-based.
The nature of assay [10]: Inhibition of hyaluronic acid deposition in human LX2 cells incubated for 72 hrs by ELISA. It counts as functional, cell-based. The conditions noted are these: lx-2.
The nature of assay [11]: Inhibition of laminin deposition in human LX2 cells incubated for 72 hrs by ELISA. It counts as functional, cell-based. The conditions noted are these: lx-2.
For a further assay, the system named is LX-2. In words: Cytotoxicity against human LX2 cells assessed as reduction in cell viability at 100 uM by MTT assay. It counts as functional, cell-based.

Converted amounts (≈) assume the structure as drawn. The source made the active and inactive calls. No cut-off for these calls is given here.

`C=C1C(=O)O[C@@H]2[C@H]3C(C)=CC[C@@H](OC(=O)CCC(=O)O[C@@H]4CC=C(C)[C@@H]5[C@H]6OC(=O)C(=C)[C@@H]6CC[C@]54C)[C@]3(C)CC[C@@H]12`: the IC50 in [1] amounted to 17.9 µM; in [2] it was 3.5 µM; in assay [4], 6.6 µM; in [7], 16.2 µM. The “Ratio IC50” value in [3] is given as 3; in assay [5], 3; in assay [6], 5.
On to `C=C1C(=O)O[C@@H]2[C@H]3C(C)=CC[C@@H](OC(=O)c4cccnc4)[C@]3(C)CC[C@@H]12`, for which the IC50 in [2] amounted to 27.6 µM.
With `C=C1C(=O)O[C@@H]2[C@H]3C(C)=CC[C@@H](OC(=O)c4ccc(C(=O)O[C@@H]5CC=C(C)[C@@H]6[C@H]7OC(=O)C(=C)[C@@H]7CC[C@]65C)cc4)[C@]3(C)CC[C@@H]12`, the IC50 in assay [2] came out at 9 µM.
Regarding `C=C1C(=O)O[C@@H]2[C@H]3C(C)=CC[C@@H](OC(=O)CCC(=O)Oc4ccc(-n5cc(C)ccc5=O)cc4)[C@]3(C)CC[C@@H]12`, the 50% inhibitory concentration (IC50) in [2] worked out at 55.9 µM.
With `C=C1C(=O)O[C@@H]2[C@H]3C(C)=CC[C@@H](OC(=O)/C=C/c4ccccc4)[C@]3(C)CC[C@@H]12`, the IC50 in assay [2] came to 17.6 µM.
`C=C1C(=O)O[C@@H]2[C@H]3C(C)=CC[C@@H](OC(=O)CCCC(=O)O[C@@H]4CC=C(C)[C@@H]5[C@H]6OC(=O)C(=C)[C@@H]6CC[C@]54C)[C@]3(C)CC[C@@H]12`: the IC50 in assay [2] stood at 11.1 µM.
`C=C1C(=O)O[C@@H]2[C@H]3C(C)=CC[C@@H](OC(=O)/C=C/c4c(F)c(F)c(F)c(F)c4F)[C@]3(C)CC[C@@H]12`: the 50% inhibitory concentration (IC50) was 7.6 µM in [1], 4.6 µM in [2], 3.3 µM in assay [4] and 6.1 µM in assay [7]. For the same compound, the “Ratio IC50” value in assay [3] is reported as 8; in assay [5], 6; in assay [6], 4.
Turning to `C=C1C(=O)O[C@@H]2[C@H]3C(C)=CC[C@@H](OC(=O)CCCCCCC)[C@]3(C)CC[C@@H]12`, in [2], the IC50 was determined as 32.4 µM.
Consider `C=C1C(=O)O[C@@H]2[C@H]3C(C)=CC[C@@H](OC(=O)c4cccs4)[C@]3(C)CC[C@@H]12`, for which, in assay [2], the IC50 turned out to be 31.3 µM.
With `C=C1C(=O)O[C@@H]2[C@H]3C(C)=CC[C@@H](OC(=O)C4CCCC4)[C@]3(C)CC[C@@H]12`, in assay [2], the IC50 amounted to 11.9 µM.
Same read-out and setting: the same measure for `C=C1C(=O)O[C@@H]2[C@H]3C(C)=CC[C@@H](OC(=O)/C=C/c4ccc(OC(C)=O)cc4)[C@]3(C)CC[C@@H]12`: 21.5 µM.
Regarding `COc1cc([C@H]2Oc3cc([C@H]4Oc5cc(O)cc(O)c5C(=O)[C@@H]4O)ccc3O[C@@H]2CO)ccc1O` [SILYBIN A], the IC50 in assay [1] amounted to 164 µM; in assay [2] it was 151 µM; in assay [4], 83.7 µM; in [7], 51.5 µM.
For `C=C1C(=O)O[C@@H]2[C@H]3C(C)=CCC(=O)[C@]3(C)CC[C@@H]12`, in [2], the IC50 turned out to be 44.4 µM.
For the compound `C=C1C(=O)O[C@@H]2[C@H]3C(C)=CC[C@@H](OC(=O)/C=C/c4ccc(C=O)cc4)[C@]3(C)CC[C@@H]12`, the IC50 in assay [2] amounted to 45.5 µM.
Still for that read-out and setting: then `C=C1C(=O)O[C@@H]2[C@H]3C(C)=CC[C@@H](OC(=O)c4cccc(C(F)(F)F)c4)[C@]3(C)CC[C@@H]12`, with 11.5 µM.
In the case of `C=C1C(=O)O[C@@H]2[C@H]3C(C)=CC[C@@H](OC(=O)/C=C/c4cccc(C(F)(F)F)c4)[C@]3(C)CC[C@@H]12`, the IC50 came to 21.2 µM in [1], 6.4 µM in assay [2], 7.3 µM in assay [4] and 14.7 µM in [7]. Moreover, the “Ratio IC50” value in assay [3], in assay [5] and in assay [6] was 3 each time.
For the compound `C=C1C(=O)O[C@@H]2[C@H]3C(C)=CC[C@@H](OC(=O)/C=C/c4ccc(C(F)(F)F)cc4)[C@]3(C)CC[C@@H]12`, in assay [2], the IC50 turned out to be 16.3 µM.
`C=C1C(=O)O[C@@H]2[C@H]3C(C)=CC[C@@H](OC(=O)/C=C/c4ccncc4)[C@]3(C)CC[C@@H]12`: in assay [2], the IC50 worked out at 16.1 µM.
Turning to `C=C1C(=O)O[C@@H]2[C@H]3C(C)=CC[C@@H](OC(=O)CCC(=O)O)[C@]3(C)CC[C@@H]12`, in [2], the IC50 was determined as 92 µM.
Still for that read-out and setting: then `C=C1C(=O)O[C@@H]2[C@H]3C(C)=CC[C@@H](OC(=O)/C=C/c4ccc(F)cc4)[C@]3(C)CC[C@@H]12`, with 21 µM.
On to `C=C1C(=O)O[C@@H]2[C@H]3C(C)=CC[C@@H](OC(=O)c4ccccc4)[C@]3(C)CC[C@@H]12`, for which, in assay [2], the IC50 came to 16.9 µM.
Turning to `C=C1C(=O)O[C@@H]2[C@@H]3[C@@](C)(CC[C@@H]12)[C@H](O)C[C@H]1O[C@@]31C`, in assay [2], the IC50 turned out to be 47.4 µM.
`C=C1C(=O)O[C@@H]2[C@H]3C(C)=CC[C@@H](O)[C@]3(C)CC[C@@H]12` [SANTAMARIN]: the IC50 with LS174T came to 0.16 µg/mL (≈ 0.644 µM); in the assay on CCRF-CEM, 0.16 µg/mL (≈ 0.644 µM); with MCF7, 0.16 µg/mL (≈ 0.644 µM); in assay [8] it was 7.3 µM; in [9], 16.5 µM; in the assay with KB, 0.16 µg/mL (≈ 0.644 µM). Moreover, the IC50 was 0.16 µg/mL (≈ 0.644 µM) with L1210, above 60 µM in [10] and 18.6 µM in assay [11].
As for `CC1=CC[C@@H](O)[C@]2(C)CC[C@@H]3[C@H](OC(=O)[C@H]3CN(C)C)[C@@H]12`, the result in the assay on LX-2 was inactive.
As for `C=C1[C@H](O)C[C@@H](O)[C@]2(C)CC[C@H]3C(=C)C(=O)O[C@@H]3[C@@H]12`, in [2], the IC50 was 43.3 µM.
As to `C=C1C(=O)O[C@@H]2[C@H]3C(C)=CC[C@@H](OC(=O)/C=C/c4ccccc4C(F)(F)F)[C@]3(C)CC[C@@H]12`, in [2], the IC50 worked out at 16.5 µM.
On to `C=C1C(=O)O[C@@H]2[C@H]3C(C)=CC[C@@H](OC(=O)c4ccc(-n5cc(C)ccc5=O)cc4)[C@]3(C)CC[C@@H]12`, for which the IC50 in assay [2] came out at 55.9 µM.
As to `C=C1C(=O)O[C@@H]2[C@H]3C(C)=CC[C@@H](OC(C)=O)[C@]3(C)CC[C@@H]12`, in assay [2], the IC50 turned out to be 12.3 µM.

For the origin of these results see ChEMBL document CHEMBL4814036, “Synthesis and anti-fibrotic effects of santamarin derivatives as cytotoxic agents against hepatic stellate cell line LX2” (Bioorg Med Chem Lett, 2021).
